Results: patent US8106055B2, “Substituted amide compounds” (Gruenenthal GmbH, priority 2007, dated 2012)

How the values were obtained:
human μ opiate receptor = target: T1, human μ opiate receptor (Homo sapiens, UniProt P35372); assay: Affinity for the human μ opiate receptor ([3H]-naloxone displacement, CHO-K1 receptor membrane preparation, SPA); format: binding; conditions: test concentration of 1 μM; read-out: μ (binding on the μ opioid receptor, % inhibition)
T1 construct: purchased PerkinElmer Life Sciences, Zaventem, Belgium RB-HOM; host or cells: CHO-K1 cells (membrane preparation)
T1 sequence (P35372 whole entry): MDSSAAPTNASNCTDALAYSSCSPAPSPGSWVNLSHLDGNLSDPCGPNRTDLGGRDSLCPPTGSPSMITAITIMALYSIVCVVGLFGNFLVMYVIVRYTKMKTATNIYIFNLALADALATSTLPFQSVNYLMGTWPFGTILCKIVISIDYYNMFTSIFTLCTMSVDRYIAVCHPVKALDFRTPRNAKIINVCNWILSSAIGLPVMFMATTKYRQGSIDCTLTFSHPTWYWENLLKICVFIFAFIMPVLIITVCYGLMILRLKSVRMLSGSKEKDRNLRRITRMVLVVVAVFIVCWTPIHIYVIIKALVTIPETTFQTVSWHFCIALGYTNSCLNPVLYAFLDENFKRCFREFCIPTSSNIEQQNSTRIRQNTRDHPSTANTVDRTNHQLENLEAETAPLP
Method in brief: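 Scintillation proximity binding on human μ receptor membranes from CHO-K1 cells used 1 nmol/l [3H]-naloxone over 90 min at room temperature in 50 mmol/l Tris-HCl, 0.06% BSA. Percent inhibition was recorded at 1 μM.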

[1] = target: T2, serotonin (5-HT) reuptake (Rattus norvegicus, UniProt P31652); assay: Inhibition of serotonin (5HT) reuptake in synaptosomes from rat brain; format: biochemical; conditions: test concentration of 10 μM; read-out: 5-HT (inhibition of reuptake of serotonin, % inhibition)
T2 construct: synaptosomes are freshly isolated from areas of the rat brain; from tissue; host or cells: rat brain synaptosomes (P2 fraction)
T2 sequence (P31652 whole entry): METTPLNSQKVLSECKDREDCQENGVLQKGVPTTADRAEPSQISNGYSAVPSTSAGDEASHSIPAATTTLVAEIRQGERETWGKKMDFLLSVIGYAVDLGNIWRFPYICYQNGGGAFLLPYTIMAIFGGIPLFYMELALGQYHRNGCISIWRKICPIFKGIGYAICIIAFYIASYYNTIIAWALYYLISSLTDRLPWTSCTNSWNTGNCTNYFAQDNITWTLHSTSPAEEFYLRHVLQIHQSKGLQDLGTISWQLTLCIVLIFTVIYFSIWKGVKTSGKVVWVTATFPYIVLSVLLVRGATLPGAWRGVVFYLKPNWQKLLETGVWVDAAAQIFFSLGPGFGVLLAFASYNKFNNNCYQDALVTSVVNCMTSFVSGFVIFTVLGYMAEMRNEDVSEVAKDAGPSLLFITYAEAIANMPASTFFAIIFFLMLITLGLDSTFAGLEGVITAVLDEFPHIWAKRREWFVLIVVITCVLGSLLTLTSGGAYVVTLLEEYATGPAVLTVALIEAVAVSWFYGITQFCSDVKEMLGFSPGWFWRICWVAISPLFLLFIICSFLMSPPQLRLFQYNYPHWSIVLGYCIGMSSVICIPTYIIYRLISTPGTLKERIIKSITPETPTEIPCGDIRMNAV
Method in brief: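 Freshly isolated rat brain synaptosomes (P2 fraction) used for 5-HT reuptake. Test compound at 10 μM, activity given as % inhibition.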

Structure (SMILES)	inhibition at 1 µM (human μ opiate receptor) [%]	inhibition at 10 µM [1] [%]
COc1cc(C)c(S(=O)(=O)N2CCC(OCC(=O)NCC3CCC(C(c4cccs4)N(C)C)CC3)C2)c(C)c1 (stereo not drawn) [Example 86, N-((4-((dimethylamino)(thiophen-2-yl)methyl)cyclohexyl)methyl)-2-(1-(4-methoxy-2,6-dimethylphenylsulfonyl)pyrrolidin-3-yloxy)acetamide]	95	96
CN(C)C(c1cccc(F)c1)C1CCC(CNC(=O)COCC2CCCCN2S(=O)(=O)c2ccc(Cl)c(Cl)c2)CC1 (stereo not drawn) [Example 87, 2-((1-(3,4-dichlorophenylsulfonyl)piperidin-2-yl)methoxy)-N-((4-((dimethylamino)(3-fluorophenyl)methyl)cyclohexyl)methyl)acetamide]	93	94
COc1ccc(S(=O)(=O)N2CCCCC2COCC(=O)NCC2CCC(C(c3ccccc3)N(C)C)CC2)cc1 (stereo not drawn) [Example 88, N-((4-((dimethylamino)(phenyl)methyl)cyclohexyl)methyl)-2-((1-(4-methoxyphenylsulfonyl)piperidin-2-yl)methoxy)acetamide]	94	95
COc1ccc(S(=O)(=O)N2CCCCC2CCOCC(=O)NCC2CCC(C(c3ccccc3)N(C)C)CC2)cc1 (stereo not drawn) [Example 89, N-((4-((dimethylamino)(phenyl)methyl)cyclohexyl)methyl)-2-(2-(1-(4-methoxyphenylsulfonyl)piperidin-2-yl)ethoxy)acetamide]	93	92
COc1ccc(S(=O)(=O)N2CCCCC2CCOCC(=O)NCC2CCC(C(c3cccs3)N(C)C)CC2)cc1 (stereo not drawn) [Example 90, N-((4-((dimethylamino)(thiophen-2-yl)methyl)cyclohexyl)methyl)-2-(2-(1-(4-methoxyphenylsulfonyl)piperidin-2-yl)ethoxy)acetamide]	95	94
CN(C)C(c1ccccc1)C1CCC(CNC(=O)COCCN(C)S(=O)(=O)c2cccc(C(F)(F)F)c2)CC1 (stereo not drawn) [Example 91, N-((4-((dimethylamino)(phenyl)methyl)cyclohexyl)methyl)-2-(2-(N-methyl-3-(trifluoromethyl)phenylsulfonamido)ethoxy)acetamide]	91	93
CN(C)C(c1cccs1)C1CCC(CNC(=O)COCCN(C)S(=O)(=O)c2cccc(C(F)(F)F)c2)CC1 (stereo not drawn) [Example 92, N-((4-((dimethylamino)(thiophen-2-yl)methyl)cyclohexyl)methyl)-2-(2-(N-methyl-3-(trifluoromethyl)phenylsulfonamido)ethoxy)acetamide]	94	86
CN(C)C(c1cccs1)C1CCC(CNC(=O)COCCN(C)S(=O)(=O)c2ccc(OC(F)(F)F)cc2)CC1 (stereo not drawn) [Example 93, N-((4-((dimethylamino)(thiophen-2-yl)methyl)cyclohexyl)methyl)-2-(2-(N-methyl-4-(trifluoromethoxy)phenylsulfonamido)ethoxy)acetamide]	95	93
COc1ccc(S(=O)(=O)N2CCC(OCC(=O)NCCC3CCC(C(c4cccs4)N(C)C)CC3)C2)cc1OC (stereo not drawn) [Example 94, 2-(1-(3,4-dimethoxyphenylsulfonyl)pyrrolidin-3-yloxy)-N-(2-(4-((dimethylamino)(thiophen-2-yl)methyl)cyclohexyl)ethyl)acetamide]	93	88
